In the assay the test system is HIV-1 (strain LAY-1). The experiment in a line: Inhibition of HIV virus replication in human peripheral blood mononuclear (PBM) cells. It counts as cell-based. The conditions noted are these: Human immunodeficiency virus 1, PBMC, 144 h, supernatant RT activity six days after infection, read-out: IC50, 50% inhibition of replication of HIV. The text has this: The group R' in Table 1 represents the cholesterol "tail" of Compound 7 which is connected to the 3'-terminal phosphate through a "linking group" derived from 4-hydroxy-2-hydroxymethylpyrrolidine and carbonyl connecting group. […] The IC50 numbers in Table 1 refer to the concentration of the compound which gives 50% inhibition of replication of HIV in a cell culture of human peripheral blood mononuclear (PBM) cells.
Cell Culture. Human PBM cells from healthy HIV-1 seronegative and hepatitis B virus seronegative donors were isolated by Ficoll-Hypaque discontinuous gradient centrifugation at 1,000× g for 30 minutes, washed twice in phosphate-buffered saline (pH 7.2; PBS), and pelleted at 300× g for 10 min. […]
Viruses. […] The virus was propagated in human PBM cells using RPMI 1640 medium, as described previously (McDougal, J. S., Cort, S. P., Kennedy, M. S. Cabridilla, C. D., Feorino, P. M., Francis, D. P., Hicks, D., Kalyanaramen, V. S. and Martin, L. S. (1985): Immunoassay for the detection and quantitation of infectious human retrovirus, lymphadenopathy-associated virus (LAV). J. Immun. Meth. 76:171-183) without PHA or fungizone and supplemented with 26 units/ml of recombinant interleukin-2 (Cetus Corporation, Emeryville, Calif.), 7 μg/ml DEAE-dextran (Pharmacia, Uppsala, Sweden), and 370 U/ml anti-human leukocyte (alpha) interferon (ICN, Lisle, Ill.). […]

With `CO[C@@H]1[C@H](O)[C@@H](CO)O[C@H]1n1cnc2c(=S)n(C)cnc21` [Nucleoside, 9(2'-O-methyl-1-β-D-ribofuranosyl)-1-methyl-6-thiopurine], the IC50 is around 100 µM.

For orientation: IC50 means the concentration at which inhibition is half-maximal.

The record behind these values is US5652359A, “Oligonucleotides containing n-methyl thiolated bases having antiviral activity” (Epoch Pharmaceuticals, Inc., priority 1993, dated 1997).
